Patent publication US12448369B2 (Edgewise Therapeutics, Inc., priority 2023, dated 2025)

Key:
[1] = test system: Rabbit Psoas myofibrils (skeletal myosin ATPase); assay: Myofibril ATPase assay, rabbit psoas (skeletal) myofibrils; format: biochemical; details: rabbit psoas myofibrils; Y75 value
Method in brief: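 ATPase activity of Triton-washed myofibrils was measured by PK/LDH coupling, following NADH loss at 340 nm every 1.5–2 min for 75 min in PIPES/Ca/EGTA buffer at pH 7.0. Slopes, normalized to vehicle (100%), were fitted to a 4-parameter logistic model. Values are Y75 (25% inhibition) or Y125 (activators).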

[2] = test system: Porcine atria myofibrils (atrial myosin ATPase); assay: Myofibril ATPase assay, porcine atria myofibrils; format: biochemical; details: porcine atria myofibrils; Y75 value (75% activity relative to no compound)
Method in brief: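 Porcine atrial myofibrils were tested in a PK/LDH-coupled system where ADP from myosin ATPase drives NADH oxidation. Absorbance at 340 nm was read every 1.5-2 min for 75 min and slopes were normalized to vehicle wells. A 4-parameter logistic fit gave Y75 (25% inhibition) or Y125 (activation) concentrations.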

[3] = target: T1, Porcine ventricle myofibrils (ventricular myosin ATPase) (Sus scrofa, UniProt P79293); assay: Myofibril ATPase assay, porcine ventricle myofibrils; format: biochemical, porcine (Yucatan minipigs); details: porcine ventricle myofibrils; Y75 value
T1 construct: Myofibrils from porcine cardiac muscle was isolated from the left ventricle of Yucatan minipigs; tissue Exemplar Genetics; host or cells: left ventricle of Yucatan minipigs, myofibrils prepared in house
Method in brief: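 Left-ventricle myofibrils from Yucatan minipigs were tested with a PK/LDH-coupled system, following NADH loss at 340 nm every 1.5-2 min for 75 min. Slopes were normalized to vehicle wells and fit to a 4-parameter logistic model; values are Y75 (25% ATPase reduction) or Y125 concentrations.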

T1 sequence (P79293 whole entry): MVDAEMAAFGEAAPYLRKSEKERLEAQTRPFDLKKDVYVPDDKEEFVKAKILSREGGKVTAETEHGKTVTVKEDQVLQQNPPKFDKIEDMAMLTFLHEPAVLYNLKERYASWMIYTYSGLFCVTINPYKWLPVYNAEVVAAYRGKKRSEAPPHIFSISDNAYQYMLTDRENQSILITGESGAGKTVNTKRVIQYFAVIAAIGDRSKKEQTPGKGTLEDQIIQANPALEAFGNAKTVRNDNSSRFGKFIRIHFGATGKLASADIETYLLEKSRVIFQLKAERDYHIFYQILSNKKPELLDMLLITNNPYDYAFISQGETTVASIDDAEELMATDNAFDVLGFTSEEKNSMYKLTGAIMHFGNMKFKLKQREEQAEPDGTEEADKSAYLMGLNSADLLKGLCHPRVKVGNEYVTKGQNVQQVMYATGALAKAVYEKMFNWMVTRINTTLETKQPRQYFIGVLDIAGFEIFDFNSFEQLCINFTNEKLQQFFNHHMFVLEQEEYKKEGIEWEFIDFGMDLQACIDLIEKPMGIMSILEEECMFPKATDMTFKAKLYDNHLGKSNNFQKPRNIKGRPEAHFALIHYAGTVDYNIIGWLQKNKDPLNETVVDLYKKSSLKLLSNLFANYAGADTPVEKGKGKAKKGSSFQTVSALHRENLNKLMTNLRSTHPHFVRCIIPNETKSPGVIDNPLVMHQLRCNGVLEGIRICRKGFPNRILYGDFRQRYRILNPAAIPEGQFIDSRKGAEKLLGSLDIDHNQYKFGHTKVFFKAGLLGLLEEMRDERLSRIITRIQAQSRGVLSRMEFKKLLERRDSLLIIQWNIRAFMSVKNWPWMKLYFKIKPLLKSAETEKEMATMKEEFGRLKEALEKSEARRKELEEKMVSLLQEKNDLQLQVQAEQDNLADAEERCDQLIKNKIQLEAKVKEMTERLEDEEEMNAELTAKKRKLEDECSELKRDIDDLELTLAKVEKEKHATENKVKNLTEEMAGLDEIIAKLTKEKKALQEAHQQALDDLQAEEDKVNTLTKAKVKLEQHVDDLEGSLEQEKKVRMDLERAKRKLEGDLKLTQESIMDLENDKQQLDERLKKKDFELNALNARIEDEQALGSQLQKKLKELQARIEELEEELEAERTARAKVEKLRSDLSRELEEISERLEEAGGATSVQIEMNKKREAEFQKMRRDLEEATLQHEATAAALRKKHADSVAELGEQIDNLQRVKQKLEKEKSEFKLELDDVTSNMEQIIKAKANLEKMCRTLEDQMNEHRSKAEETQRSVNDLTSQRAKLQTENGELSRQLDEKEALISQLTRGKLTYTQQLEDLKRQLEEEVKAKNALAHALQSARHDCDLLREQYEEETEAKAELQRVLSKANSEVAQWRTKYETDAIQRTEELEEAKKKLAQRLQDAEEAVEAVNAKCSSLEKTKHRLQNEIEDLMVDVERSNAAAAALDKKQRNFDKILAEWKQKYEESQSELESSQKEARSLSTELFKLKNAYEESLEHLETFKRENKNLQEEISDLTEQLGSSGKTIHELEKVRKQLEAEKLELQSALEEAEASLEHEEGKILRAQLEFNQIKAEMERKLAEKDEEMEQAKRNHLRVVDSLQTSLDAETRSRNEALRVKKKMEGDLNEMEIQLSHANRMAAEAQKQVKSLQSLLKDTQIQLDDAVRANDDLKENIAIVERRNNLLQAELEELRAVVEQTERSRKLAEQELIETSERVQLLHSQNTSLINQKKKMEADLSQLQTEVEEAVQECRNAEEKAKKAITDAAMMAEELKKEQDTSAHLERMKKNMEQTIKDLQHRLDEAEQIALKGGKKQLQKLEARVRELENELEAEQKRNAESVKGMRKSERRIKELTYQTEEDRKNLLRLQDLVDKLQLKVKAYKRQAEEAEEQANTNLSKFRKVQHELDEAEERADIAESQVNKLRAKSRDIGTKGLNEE

Skeletal EC25 [1] [µM]	Atrial EC25 [2] [µM]	Ventricular EC25 [3] [µM]	SMILES
0.71	1.30	1.77	Cc1nccc2[nH]c(=O)c(CC(=O)N[C@H](C)c3ccc(C#N)cc3F)c(C)c12 (single isomer, unassigned) [compound 255]
100.00	100.00	100.00	Cc1nccc2[nH]c(=O)c(CC(=O)N[C@H](C)c3ncccc3F)c(C)c12 (single isomer, unassigned) [compound 267]
100.00	100.00	100.00	Cc1nccc2[nH]c(=O)c(CC(=O)N[C@@H](C)c3ncccc3F)c(C)c12 (single isomer, unassigned) [compound 268]
100.00	100.00	100.00	Cc1nccc2[nH]c(=O)c(CC(=O)N[C@@H](c3ccc(F)cc3F)C(C)(C)O)c(C)c12 (single isomer, unassigned) [compound 271]
100.00	100.00	100.00	Cc1nccc2[nH]c(=O)c(CC(=O)N[C@H](c3ccc(F)cc3F)C(C)(C)O)c(C)c12 (single isomer, unassigned) [compound 272]
8.58	45.61	100.00	COc1ccc([C@@H](C)NC(=O)Cc2c(C)c3c(C)nccc3[nH]c2=O)cc1 (single isomer, unassigned) [compound 286]
100.00	100.00	100.00	COc1ccc([C@H](C)NC(=O)Cc2c(C)c3c(C)nccc3[nH]c2=O)cc1 (single isomer, unassigned) [compound 287]
100.00	100.00	100.00	COc1ccc([C@@H](C)NC(=O)Cc2c(C)c3c(C)nccc3[nH]c2=O)cn1 (single isomer, unassigned) [compound 290]
100.00	100.00	100.00	COc1ccc([C@H](C)NC(=O)Cc2c(C)c3c(C)nccc3[nH]c2=O)cn1 (single isomer, unassigned) [compound 291]
100.00	100.00	100.00	Cc1cccc([C@@H](CO)NC(=O)Cc2c(C)c3c(C)nccc3[nH]c2=O)c1 (single isomer, unassigned) [compound 294]
100.00	100.00	100.00	Cc1nccc2[nH]c(=O)c(CC(=O)N[C@H](C)c3ccc(O)nc3)c(C)c12 (single isomer, unassigned) [compound 295]
100.00	88.12	100.00	Cc1nccc2[nH]c(=O)c(CC(=O)N[C@@H](C)c3ccc(O)nc3)c(C)c12 (single isomer, unassigned) [compound 296]
100.00	100.00	100.00	Cc1nccc2[nH]c(=O)c(CC(=O)N[C@H](C)c3cccc(O)n3)c(C)c12 (single isomer, unassigned) [compound 297]
100.00	100.00	100.00	Cc1nccc2[nH]c(=O)c(CC(=O)N[C@@H](C)c3cccc(O)n3)c(C)c12 (single isomer, unassigned) [compound 298]
100.00	100.00	100.00	Cc1ccc([C@@H](C)NC(=O)Cc2c(C)c3c(C)nccc3[nH]c2=O)cc1 (single isomer, unassigned) [compound 301]
100.00	100.00	100.00	Cc1nccc2[nH]c(=O)c(CC(=O)N[C@H](C)c3cccnc3O)c(C)c12 (single isomer, unassigned) [compound 302]
40.83	100.00	100.00	Cc1nccc2[nH]c(=O)c(CC(=O)N[C@H](CO)c3ncc(F)cc3F)c(C)c12 (single isomer, unassigned) [compound 303]
5.05	11.75	100.00	Cc1ccc([C@H](C)NC(=O)Cc2c(C)c3c(C)nccc3[nH]c2=O)cc1 (single isomer, unassigned) [compound 306]
100.00	100.00	100.00	Cc1nccc2[nH]c(=O)c(CC(=O)N[C@@H](C)c3cccnc3O)c(C)c12 (single isomer, unassigned) [compound 307]

The next lines start with the compound.

SMILES	Skeletal EC25 [1] [µM]	Atrial EC25 [2] [µM]	Ventricular EC25 [3] [µM]
Cc1nccc2[nH]c(=O)c(CC(=O)N[C@@H](C)c3ccc(C#N)cn3)c(C)c12 (single isomer, unassigned) [compound 254]	1.78	18.17	23.41
C[C@H](NC(=O)[C@H](C)c1cc2nc(C#N)ccc2[nH]c1=O)c1ccc(F)cc1F (single isomer, unassigned) [compound 257]	100.00	100.00	100.00
C[C@H](NC(=O)[C@@H](C)c1cc2nc(C#N)ccc2[nH]c1=O)c1ccc(F)cc1F (single isomer, unassigned) [compound 258]	100.00	100.00	63.55
Cc1c(CC(=O)N[C@H](C)c2ncc(F)cc2F)c(=O)[nH]c2ccnc(C(F)(F)F)c12 (single isomer, unassigned) [compound 265]	3.86	100.00	100.00
Cc1c(CC(=O)N[C@@H](C)c2ncc(F)cc2F)c(=O)[nH]c2ccnc(C(F)(F)F)c12 (single isomer, unassigned) [compound 266]	0.21	0.25	1.11
Cc1c(CC(=O)N[C@@H]2COc3cc(F)cc(F)c32)c(=O)[nH]c2ccnc(C#N)c12 (single isomer, unassigned) [compound 273]	0.97	2.50	4.08
Cc1c(CC(=O)N[C@H]2COc3cc(F)cc(F)c32)c(=O)[nH]c2ccnc(C#N)c12 (single isomer, unassigned) [compound 274]	0.02	0.04	0.13
Cc1c(CC(=O)N[C@@H](c2ccc(F)cc2F)C(C)(C)O)c(=O)[nH]c2ccnc(C#N)c12 (single isomer, unassigned) [compound 279]	1.29	78.18	100.00
Cc1c(CC(=O)N[C@H](c2ccc(F)cc2F)C(C)(C)O)c(=O)[nH]c2ccnc(C#N)c12 (single isomer, unassigned) [compound 280]	24.76	100.00	100.00
Cc1c(CC(=O)N[C@H](C)c2ccc(C#N)cc2F)c(=O)[nH]c2ccnc(C#N)c12 (single isomer, unassigned) [compound 282]	0.35	1.55	1.16
Cc1c(CC(=O)N[C@@H](C)c2ccc(C#N)cc2F)c(=O)[nH]c2ccnc(C#N)c12 (single isomer, unassigned) [compound 283]	0.01	0.04	0.10
Cc1c(CC(=O)N[C@H](C)c2ncc(C#N)cc2F)c(=O)[nH]c2ccnc(C#N)c12 (single isomer, unassigned) [compound 284]	0.49	4.56	10.63
Cc1c(CC(=O)N[C@@H](C)c2ncc(C#N)cc2F)c(=O)[nH]c2ccnc(C#N)c12 (single isomer, unassigned) [compound 285]	0.02	0.28	0.16
Cc1nccc2[nH]c(=O)c(CC(=O)N[C@@H]3COc4cc(F)cc(F)c43)c(C)c12 (single isomer, unassigned) [compound 288]	0.02	0.08	0.27
Cc1nccc2[nH]c(=O)c(CC(=O)N[C@H]3COc4cc(F)cc(F)c43)c(C)c12 (single isomer, unassigned) [compound 289]	2.54	28.00	100.00
Cc1c(CC(=O)N[C@H](C)c2ncc(F)cc2F)c(=O)[nH]c2ccnc(C#N)c12 (single isomer, unassigned) [compound 304]	1.57	17.26	100.00
Cc1c(CC(=O)N[C@@H](C)c2ncc(F)cc2F)c(=O)[nH]c2ccnc(C#N)c12 (single isomer, unassigned) [compound 305]	0.02	0.07	0.57
